Data set [1] concerns Rattus norvegicus. Description: Neurotoxicity in Rattus norvegicus Wistar albino (rat) assessed as increase in brain total nitric oxide level measured per gram of tissue at 20 mg/kg, administered as intragastrically after 21 days by Griess assay (reference value: 144.8 +/- 16.3 umol). In kind it is toxicity, organism-based. Further details: dose 20 mg/kg, route intragastric. Conditions: in vivo, po, 504 h. (Griess reagent forms a coloured azo dye with nitrite.)

Data set [2] deals with Rattus norvegicus. The experiment in a line: Neurotoxicity in Rattus norvegicus Wistar albino (rat) assessed as increase in brain glutathione level measured per gram of tissue at 20 mg/kg, administered as intragastrically after 21 days by Ellman's method (reference value: 3.5 +/- 1.0 umol). In kind it is toxicity, organism-based. Further details: dose 20 mg/kg, route intragastric. Conditions: in vivo, po, 504 h. On the technique in general: DTNB colorimetry detects thiols as they appear.

Data set [3] has as its system Rattus norvegicus. The experiment in a line: Neuroprotective activity in streptozotocin-induced Rattus norvegicus Wistar albino (rat) diabetic model assessed as increase in brain glutathione level measured per gram of tissue at 20 mg/kg, administered as intragastrically after 21 days by Ellman's method (reference value: 3 +/- 0.5 umol). Format: functional. The following applies: route intragastric.

Data set [4] deals with Rattus norvegicus. Description: Neuroprotective activity in streptozotocin-induced Rattus norvegicus Wistar albino (rat) diabetic model assessed as increase in brain ascorbic acid level measured per gram of tissue at 20 mg/kg, administered as intragastrically after 21 days by spectrphotometric analysis (reference value: 3.7 +/- 0.4 mg). Format: functional. The following applies: route intragastric.

The subject of data set [5] is Rattus norvegicus. Description: Neurotoxicity in Rattus norvegicus Wistar albino (rat) assessed as increase in brain malondialdehyde level measured per gram of tissue at 20 mg/kg, administered as intragastrically after 21 days by TBARS assay (reference value: 233.9 +/- 48.6 nmol). Further details: dose 20 mg/kg, route intragastric. Conditions: in vivo, po, 504 h. Format: toxicity, organism-based.

Data set [6] concerns Rattus norvegicus. The experiment in a line: Neuroprotective activity in streptozotocin-induced Rattus norvegicus Wistar albino (rat) diabetic model assessed as increase in brain total nitric oxide level measured per gram of tissue at 20 mg/kg, administered as intragastrically after 21 days by Griess assay (reference value: 100.6 +/- 10.7 umol). In kind it is functional. The following applies: route intragastric.

The subject of data set [7] is Rattus norvegicus. The experiment in a line: Neuroprotective activity in streptozotocin-induced Rattus norvegicus Wistar albino (rat) diabetic model assessed as decrease in brain malondialdehyde level measured per gram of tissue at 20 mg/kg, administered as intragastrically after 21 days by TBARS assay (reference value: 447 +/- 61.9 nmol). In kind it is functional. Conditions: route intragastric.

Data set [8] relates to Rattus norvegicus. Description: Neurotoxicity in Rattus norvegicus Wistar albino (rat) assessed as increase in brain ascorbic acid level measured per gram of tissue at 20 mg/kg, administered as intragastrically after 21 days by spectrphotometric analysis (reference value: 3.7 +/- 0.7 mg). Also noted: dose 20 mg/kg, route intragastric. The following applies: in vivo, po, 504 h. In kind it is toxicity, organism-based.

With `O=C1O[C@H]([C@@H](O)CO)C(O)=C1O` [ASCORBIC ACID], the Activity in the data set on Rattus norvegicus [1] was determined as 115.2 µmol; in the data set with Rattus norvegicus [2], 5.4 µmol; in the data set with Rattus norvegicus [3] it was 3.1 µmol; in the data set on Rattus norvegicus [4], 4.26 mg; in the data set with Rattus norvegicus [5] it was 249.2 nmol; in the data set with Rattus norvegicus [6], 146.1 µmol. In addition, the Activity worked out at 204.2 nmol in the data set with Rattus norvegicus [7] and 5.2 mg in the data set with Rattus norvegicus [8].

For the origin of these results see ChEMBL document CHEMBL3045177, “The effect of ascorbic acid supplementation on brain oxidative events in experimental diabetes” (Med Chem Res, 2010).
